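A five-concentration, 48-hour dose response in 96-well plates underlies each endpoint, interpolated linearly between surrounding concentrations. Here, GI50 denotes the concentration required for 50% inhibition of growth. TGI is the concentration that stops growth completely.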
What was measured:
Test in all cases: inhibition of tumour cell growth, NCI panel, 48 h
786-0 renal = system: 786-0 renal
A498 renal = system: A498 renal
A549 NSCLC = system: A549 NSCLC
ACHN renal = system: ACHN renal
BT-549 breast = system: BT-549 breast
CAKI-1 renal = system: CAKI-1 renal
CCRF-CEM leukemia = system: CCRF-CEM leukemia
COLO 205 colon = system: COLO 205 colon
DU-145 prostate = system: DU-145 prostate
EKVX NSCLC = system: EKVX NSCLC
HCC-2998 colon = system: HCC-2998 colon
HCT-116 colon = system: HCT-116 colon
HCT-15 colon = system: HCT-15 colon
HL-60(TB) leukemia = system: HL-60(TB) leukemia
HOP-62 NSCLC = system: HOP-62 NSCLC
HOP-92 NSCLC = system: HOP-92 NSCLC
HS 578T breast = system: HS 578T breast
HT29 colon = system: HT29 colon
IGROV1 ovarian = system: IGROV1 ovarian
K-562 leukemia = system: K-562 leukemia
KM12 colon = system: KM12 colon
LOX IMVI melanoma = system: LOX IMVI melanoma
M14 melanoma = system: M14 melanoma
MALME-3M melanoma = system: MALME-3M melanoma
MCF7 breast = system: MCF7 breast
MDA-MB-231 breast = system: MDA-MB-231 breast
MDA-MB-435 = system: MDA-MB-435
MOLT-4 leukemia = system: MOLT-4 leukemia
NCI-H226 lung = system: NCI-H226 lung
NCI-H23 lung = system: NCI-H23 lung
NCI-H460 lung = system: NCI-H460 lung
NCI-H522 lung = system: NCI-H522 lung
NCI/ADR-RES ovarian = system: NCI/ADR-RES ovarian
OVCAR-4 ovarian = system: OVCAR-4 ovarian
OVCAR-5 ovarian = system: OVCAR-5 ovarian
OVCAR-8 ovarian = system: OVCAR-8 ovarian
PC-3 prostate = system: PC-3 prostate
RPMI-8226 leukemia = system: RPMI-8226 leukemia
RXF 393 renal = system: RXF 393 renal
SF-268 CNS = system: SF-268 CNS
SF-295 CNS = system: SF-295 CNS
SF-539 CNS = system: SF-539 CNS
SK-MEL-2 melanoma = system: SK-MEL-2 melanoma
SK-MEL-28 melanoma = system: SK-MEL-28 melanoma
SK-MEL-5 melanoma = system: SK-MEL-5 melanoma
SK-OV-3 ovarian = system: SK-OV-3 ovarian
SN12C renal = system: SN12C renal
SNB-19 CNS = system: SNB-19 CNS
SW-620 colon = system: SW-620 colon
T-47D breast = system: T-47D breast
TK-10 renal = system: TK-10 renal
U251 CNS = system: U251 CNS
UACC-257 melanoma = system: UACC-257 melanoma
UACC-62 melanoma = system: UACC-62 melanoma
UO-31 renal = system: UO-31 renal

Compound `O=C(CCCCCCNC(=O)c1csc(Br)n1)NO` has a GI50 (786-0 renal) of 2440 nM, a TGI (786-0 renal) of over 33300 nM and a GI50 (A498 renal) of 676 nM. It also gave a TGI (A498 renal) of 2080 nM, a GI50 (A549 NSCLC) of 1350 nM and a TGI (A549 NSCLC) of 14400 nM. For the same compound, the GI50 (ACHN renal) was 1180 nM, the TGI (ACHN renal) was 7530 nM and the GI50 (BT-549 breast) was 3050 nM. For the same compound, the TGI (BT-549 breast) was over 33300 nM, the GI50 (CAKI-1 renal) was 1120 nM and the TGI (CAKI-1 renal) was 8220 nM. The GI50 (CCRF-CEM leukemia) was 1060 nM, the TGI (CCRF-CEM leukemia) was over 33300 nM and the GI50 (COLO 205 colon) was 700 nM. It also gave a TGI (COLO 205 colon) of 1780 nM, a GI50 (DU-145 prostate) of 1210 nM and a TGI (DU-145 prostate) of over 33300 nM. The GI50 (EKVX NSCLC) was 1990 nM, the TGI (EKVX NSCLC) was over 33300 nM and the GI50 (HCC-2998 colon) was 3400 nM. It also gave a TGI (HCC-2998 colon) of 13100 nM, a GI50 (HCT-116 colon) of 892 nM and a TGI (HCT-116 colon) of 3780 nM. The GI50 (HCT-15 colon) was 2160 nM, the TGI (HCT-15 colon) was over 33300 nM and the GI50 (HL-60(TB) leukemia) was 1270 nM. It also gave a TGI (HL-60(TB) leukemia) of over 33300 nM, a GI50 (HOP-62 NSCLC) of 1410 nM and a TGI (HOP-62 NSCLC) of over 33300 nM. For the same compound, the GI50 (HOP-92 NSCLC) was 706 nM, the TGI (HOP-92 NSCLC) was 2240 nM and the GI50 (HS 578T breast) was 917 nM. For the same compound, the TGI (HS 578T breast) was 22100 nM, the GI50 (HT29 colon) was 985 nM and the TGI (HT29 colon) was 5560 nM. It also gave a GI50 (IGROV1 ovarian) of 1690 nM, a TGI (IGROV1 ovarian) of over 33300 nM and a GI50 (K-562 leukemia) of 1130 nM. For the same compound, the TGI (K-562 leukemia) was over 33300 nM, the GI50 (KM12 colon) was 2750 nM and the TGI (KM12 colon) was over 33300 nM. It also gave a GI50 (LOX IMVI melanoma) of 47.3 nM, a TGI (LOX IMVI melanoma) of 3790 nM and a GI50 (M14 melanoma) of 1640 nM. For the same compound, the TGI (M14 melanoma) was over 33300 nM, the GI50 (MALME-3M melanoma) was 787 nM and the TGI (MALME-3M melanoma) was over 33300 nM. The GI50 (MCF7 breast) was 1410 nM, the TGI (MCF7 breast) was over 33300 nM and the GI50 (MDA-MB-231 breast) was 2010 nM. The TGI (MDA-MB-231 breast) was over 33300 nM, the GI50 (MDA-MB-435) was 1050 nM and the TGI (MDA-MB-435) was 6300 nM. It also gave a GI50 (MOLT-4 leukemia) of 1020 nM, a TGI (MOLT-4 leukemia) of over 33300 nM and a GI50 (NCI-H226 lung) of 5170 nM. For the same compound, the TGI (NCI-H226 lung) was over 33300 nM, the GI50 (NCI-H23 lung) was 1900 nM and the TGI (NCI-H23 lung) was over 33300 nM. It also gave a GI50 (NCI-H460 lung) of 1250 nM, a TGI (NCI-H460 lung) of over 33300 nM and a GI50 (NCI-H522 lung) of 844 nM. It also gave a TGI (NCI-H522 lung) of 5090 nM, a GI50 (NCI/ADR-RES ovarian) of 694 nM and a TGI (NCI/ADR-RES ovarian) of 2500 nM. It also gave a GI50 (OVCAR-4 ovarian) of 3650 nM, a TGI (OVCAR-4 ovarian) of over 33300 nM and a GI50 (OVCAR-5 ovarian) of 1160 nM. For the same compound, the TGI (OVCAR-5 ovarian) was over 33300 nM, the GI50 (OVCAR-8 ovarian) was 961 nM and the TGI (OVCAR-8 ovarian) was 9580 nM. The GI50 (PC-3 prostate) was 2430 nM, the TGI (PC-3 prostate) was over 33300 nM and the GI50 (RPMI-8226 leukemia) was 951 nM. The TGI (RPMI-8226 leukemia) was 13400 nM, the GI50 (RXF 393 renal) was 929 nM and the TGI (RXF 393 renal) was 3110 nM. For the same compound, the GI50 (SF-268 CNS) was 2430 nM, the TGI (SF-268 CNS) was over 33300 nM and the GI50 (SF-295 CNS) was 1660 nM. It also gave a TGI (SF-295 CNS) of 9370 nM, a GI50 (SF-539 CNS) of 1620 nM and a TGI (SF-539 CNS) of over 33300 nM. For the same compound, the GI50 (SK-MEL-2 melanoma) was 1180 nM, the TGI (SK-MEL-2 melanoma) was 6730 nM and the GI50 (SK-MEL-28 melanoma) was 1290 nM. For the same compound, the TGI (SK-MEL-28 melanoma) was over 33300 nM, the GI50 (SK-MEL-5 melanoma) was 1240 nM and the TGI (SK-MEL-5 melanoma) was 4900 nM. The GI50 (SK-OV-3 ovarian) was 1040 nM, the TGI (SK-OV-3 ovarian) was 5430 nM and the GI50 (SN12C renal) was 2950 nM. For the same compound, the TGI (SN12C renal) was over 33300 nM, the GI50 (SNB-19 CNS) was 3200 nM and the TGI (SNB-19 CNS) was over 33300 nM. It also gave a GI50 (SW-620 colon) of 637 nM, a TGI (SW-620 colon) of 1580 nM and a GI50 (T-47D breast) of 648 nM. The TGI (T-47D breast) was 1830 nM, the GI50 (TK-10 renal) was 619 nM and the TGI (TK-10 renal) was 2550 nM. It also gave a GI50 (U251 CNS) of 1530 nM, a TGI (U251 CNS) of 7230 nM and a GI50 (UACC-257 melanoma) of 853 nM. The TGI (UACC-257 melanoma) was 3330 nM, the GI50 (UACC-62 melanoma) was 699 nM and the TGI (UACC-62 melanoma) was 2500 nM. For the same compound, the GI50 (UO-31 renal) was 1120 nM and the TGI (UO-31 renal) was over 33300 nM.
